Data: patent US6156700A, “3-(1,2-Benzisothiazol- and isoxazol-5-yl)-2,4(1H,3H)-pyrimidinedione or thione and 3-(1,2-benzisothiazol- and isoxazol-5-yl)-4(3H)-pyrimidinone or thione herbicidal agents” (American Cyanmid Company, priority 1998, dated 2000)

Key:
Test in all cases: Preemergence herbicidal evaluation
ABUTH = assay type: in vivo; set-up: scale not given here
Method: (§1) The preemergence and postemergence herbicidal properties of certain compounds of the present invention are compared with certain compounds disclosed in U.S. Pat. Nos. 5,484,763 and 5,523,278. The evaluations are performed as described in Examples 185 and 186. Data in Tables V and VI are reported by the compound number given in Example 185 for the compounds of this invention or by comparative compound letter for the compounds disclosed in U.S. Pat. Nos. 5,484,763 and 5,523,278.

AMBEL = assay type: in vivo; set-up: scale not given here
Method: as §1

CASOB = assay type: in vivo; set-up: scale not given here
Method: as §1

CHEAL = assay type: in vivo; set-up: scale not given here
Method: as §1

ECHCG = assay type: in vivo; set-up: scale not given here
Method: as §1

GALAP = assay type: in vivo; set-up: scale not given here
Method: as §1

GLXMAW = assay type: in vivo; set-up: scale not given here
Method: as §1

SETVI = assay type: in vivo; set-up: scale not given here
Method: as §1

TRZAWR = assay type: in vivo; set-up: scale not given here
Method: as §1

ZEAMX = assay type: in vivo; set-up: scale not given here
Method: as §1

IPOHE = assay type: in vivo
Method: as §1

ORYSAT = assay type: in vivo, Oryza sativa; set-up: scale not given here
Method: as §1

Measured: herbicidal effect rating

CN(C)C(=O)c1nsc2ccc(-n3c(=O)cc(C(F)(F)F)n(C)c3=O)cc12 [Compound 329, 1,2-Benzisothiazole-3-carboxamide,5-[3,6-dihydro-3-methyl-2,6-dioxo-4-(trifluoromethyl)-1(2H)-pyrimidinyl]-N,N-dimethyl-]
6.0: GALAP; 0.0620-0.0630 kg/ha | GLXMAW; 0.0313-0.0320 kg/ha | TRZAWR; 0.1250 kg/ha
8.0: AMBEL; 0.0620-0.0630 kg/ha | GLXMAW; 0.2500 kg/ha | IPOHE; 0.0620-0.0630 kg/ha | ORYSAT; 0.2500 kg/ha
2.5: SETVI; 0.0313-0.0320 kg/ha | ZEAMX; 0.0313-0.0320 kg/ha | IPOHE; 0.0156-0.0160 kg/ha | ORYSAT; 0.0313-0.0320 kg/ha
9.0: ABUTH; 0.0156-0.0160 kg/ha | ABUTH; 0.0313-0.0320 kg/ha | ABUTH; 0.0620-0.0630 kg/ha | ABUTH; 0.1250 kg/ha | ABUTH; 0.2500 kg/ha | AMBEL; 0.1250 kg/ha | AMBEL; 0.2500 kg/ha | CASOB; 0.1250 kg/ha | CHEAL; 0.0156-0.0160 kg/ha | CHEAL; 0.0313-0.0320 kg/ha | CHEAL; 0.0620-0.0630 kg/ha | CHEAL; 0.1250 kg/ha | CHEAL; 0.2500 kg/ha | ECHCG; 0.2500 kg/ha | GALAP; 0.1250 kg/ha | GALAP; 0.2500 kg/ha | GLXMAW; 0.1250 kg/ha | SETVI; 0.0620-0.0630 kg/ha | SETVI; 0.1250 kg/ha | SETVI; 0.2500 kg/ha | IPOHE; 0.1250 kg/ha | IPOHE; 0.2500 kg/ha
7.0: AMBEL; 0.0313-0.0320 kg/ha | CASOB; 0.0620-0.0630 kg/ha | ECHCG; 0.1250 kg/ha | TRZAWR; 0.2500 kg/ha | ZEAMX; 0.1250 kg/ha
7.5: GLXMAW; 0.0620-0.0630 kg/ha | ZEAMX; 0.2500 kg/ha
1.0: ECHCG; 0.0313-0.0320 kg/ha | GALAP; 0.0156-0.0160 kg/ha | GALAP; 0.0313-0.0320 kg/ha | TRZAWR; 0.0156-0.0160 kg/ha
4.5: ECHCG; 0.0620-0.0630 kg/ha
4.0: TRZAWR; 0.0620-0.0630 kg/ha | IPOHE; 0.0313-0.0320 kg/ha
0.0: ECHCG; 0.0156-0.0160 kg/ha
2.0: CASOB; 0.0313-0.0320 kg/ha | TRZAWR; 0.0313-0.0320 kg/ha
3.0: AMBEL; 0.0156-0.0160 kg/ha
8.5: CASOB; 0.2500 kg/ha
6.5: ZEAMX; 0.0620-0.0630 kg/ha | ORYSAT; 0.1250 kg/ha
0.5: CASOB; 0.0156-0.0160 kg/ha
1.5: SETVI; 0.0156-0.0160 kg/ha | ZEAMX; 0.0156-0.0160 kg/ha | ORYSAT; 0.0156-0.0160 kg/ha
5.0: GLXMAW; 0.0156-0.0160 kg/ha | ORYSAT; 0.0620-0.0630 kg/ha
